These results are taken from patent US20140120036A1, “RADIOLABELED 5-HT6 LIGANDS” (AbbVie Inc., priority 2012, published 2014).

The term Ki denotes the equilibrium dissociation constant of an inhibitor or competing ligand from its target.

Data set [1] in a line: Brain regional distribution of [3H]compound relative to cerebellum. Type of data set: in vivo.
For another data set, the target named is T1, h-5-HT2B receptor (Homo sapiens, UniProt P41595).
T1 construct: purchased Perkin Elmer ES-3,4-M400UA; host or cells: CHO-K1 cell membranes
As to the kind of experiment: 5-HT2B receptor binding assay ([125I]-DOI displacement, CHO-K1 membranes). To be noted: text. The method, then: (§1) Cells from stable clonal cell lines expressing the corresponding receptor (5-HT6, 5-HT2A or 5-HT2B receptors) were washed with PBS with 0.02% EDTA. The cells were collected by centrifugation at 500 g for 10 min. at 4° C., washed with PBS and centrifuged (500 g, 10 min. 4° C.). The pellets were stored at −80° C. until use. For membrane preparation, the thawed cell pellet was resuspended in ice-cold sucrose buffer (0.25 M sucrose, 10 mM Hepes (pH 7.4), 1 mM Phenylmethylsulfonyl fluoride (PMSF) in DMSO, […] Pepstatin-A, 3 mM EDTA, 0.025% Bacitracin) and homogenized with a Branson Sonifier W-250 (Settings: Timer 4; Output Control 3; Duty Cycle constant; 2 to 3 cycles). Cell disruption was checked with the aid of a microscope. Remaining unbroken cells were pelleted at 1,000 g for 10 min. at 4° C. The sucrose buffer supernatant was then centrifuged at 60,000 g for 1 h at 4° C. (Beckman Ultrazentrifuge XL 80). […] Protein concentration was determined (BCA-Kit; Pierce) and aliquots stored at −80° C. or in liquid nitrogen for long-term storage.
All receptor binding experiments were carried out in the corresponding assay buffer in a total volume of 200 μl in the presence of various concentrations of test compound (10 ^−5 M to 10^−9 M, tenfold serial dilution, duplicate determinations). […] Radioactivity was measured in a Microbeta Trilux two hours after the addition of the scintillation mixture. […]

The target of data set [2] is 78 targets (CEREP) other than the 5-HT6 receptor. Briefly: Selectivity panel, 78 targets (CEREP). It counts as binding. To be noted: all but the 5-HT2B and 5-HT2A receptors, read-out: Ki at ancillary targets.
Another data set deals with Rat 5-HT6 (Rattus norvegicus, UniProt P31388). Briefly: Rat 5-HT6 binding.
A further data set has as its target T2, h-5-HT6 receptor (Homo sapiens, UniProt P50406).
T2 construct: expressed in transfected cells
As to the kind of experiment: 5-HT6 receptor binding assay ([3H]-LSD displacement, HEK293 membranes). To be noted: human 5-HT6. As for the experimental part: as §1, with “The” for “Cells from stable clonal cell lines expressing the corresponding receptor (5-HT6, 5-HT2A or 5-HT2B receptors) were washed with PBS with 0.02% EDTA. The”, “C.” for “C. (Beckman Ultrazentrifuge XL 80).”
After the plates had been dried for 2 h at 55° C. in a drying chamber scintillation cocktail (BetaPlate Scint; PerkinElmer) was added. Radioactivity was measured in a Microbeta Trilux two hours after the addition of the scintillation mixture. Data derived from liquid scintillation counting were analysed by iterative non-linear regression analysis with the use of the Statistical Analysis System (SAS): a program similar to “LIGAND” as described by Munson and Rodbard (Analytical Biochemistry 107, 220-239 (1980). […]

Data set [3] can be described thus: Rat PK (0.05 mg/kg, iv), plasma and brain concentrations. To be noted: for Free B/P Ratio: free brain concentration divided by free plasma concentration. Type of data set: in vivo.
The target of the next data set is T3, h-5-HT2A receptor (Homo sapiens, UniProt P28223).
T3 construct: purchased Perkin Elmer ES-3,3-M400UA; host or cells: CHO-K1 cell membranes
Briefly: 5-HT2A receptor binding assay ([125I]-DOI displacement, CHO-K1 membranes). The method, then:
The cells were collected by centrifugation at 500 g for 10 min. at 4° C., washed with PBS and centrifuged (500 g, 10 min. 4° C.). The pellets were stored at −80° C. until use. For membrane preparation, the thawed cell pellet was resuspended in ice-cold sucrose buffer (0.25 M sucrose, 10 mM Hepes (pH 7.4), 1 mM Phenylmethylsulfonyl fluoride (PMSF) in DMSO, […] Pepstatin-A, 3 mM EDTA, 0.025% Bacitracin) and homogenized with a Branson Sonifier W-250 (Settings: Timer 4; Output Control 3; Duty Cycle constant; 2 to 3 cycles). Cell disruption was checked with the aid of a microscope. Remaining unbroken cells were pelleted at 1,000 g for 10 min. at 4° C. The sucrose buffer supernatant was then centrifuged at 60,000 g for 1 h at 4° C. (Beckman Ultrazentrifuge XL 80). The pellet was resuspended in 30 ml ice-cold Tris buffer (20 mM TRIS (pH 7.4), […] Pepstatin A, 0.1 mM PMSF, 3 mM EDTA) by pipetting through a 10 ml serological pipet and centrifuged for 1 h at 4° C. at 60,000 g. A final resuspension was performed in a small volume of ice-cold Tris buffer (see above) by pressing through a serological pipet followed by ultrasonic treatment with a Branson Sonifier W-250 (Settings: Timer 1; Output Control 3; Duty Cycle constant; 1 cycle). Protein concentration was determined (BCA-Kit; Pierce) and aliquots stored at −80° C. or in liquid nitrogen for long-term storage.
After the plates had been dried for 2 h at 55° C. in a drying chamber scintillation cocktail (BetaPlate Scint; PerkinElmer) was added. Radioactivity was measured in a Microbeta Trilux two hours after the addition of the scintillation mixture. Data derived from liquid scintillation counting were analysed by iterative non-linear regression analysis with the use of the Statistical Analysis System (SAS): a program similar to “LIGAND” as described by Munson and Rodbard (Analytical Biochemistry 107, 220-239 (1980).
Data derived from liquid scintillation counting were analyzed by iterative non-linear regression analysis with the use of the Statistical Analysis System (SAS): a program similar to “LIGAND” as described by Munson and Rodbard (Anal. Biochem. 1980, 107, 220-239). Fitting was performed according to formulae described by Feldman (Anal. Biochem. 1972, 48, 317-338).

Another data set can be described thus: Rat microsome half-life. It counts as in vitro ADME. To be noted: rat microsomes, read-out: Rat microsome T½ (mm).
Another data set concerns the target Mk striatum 5-HT6 (Macaca mulatta, UniProt A0A5F7ZDI3). Briefly: Mk striatum 5-HT6 binding. Also noted: species or system Mk (monkey).

Like-named read-outs stand apart in the source and are kept apart here. Where only a bound is given, the exact number is not on record here.

T3 sequence (P28223 whole entry): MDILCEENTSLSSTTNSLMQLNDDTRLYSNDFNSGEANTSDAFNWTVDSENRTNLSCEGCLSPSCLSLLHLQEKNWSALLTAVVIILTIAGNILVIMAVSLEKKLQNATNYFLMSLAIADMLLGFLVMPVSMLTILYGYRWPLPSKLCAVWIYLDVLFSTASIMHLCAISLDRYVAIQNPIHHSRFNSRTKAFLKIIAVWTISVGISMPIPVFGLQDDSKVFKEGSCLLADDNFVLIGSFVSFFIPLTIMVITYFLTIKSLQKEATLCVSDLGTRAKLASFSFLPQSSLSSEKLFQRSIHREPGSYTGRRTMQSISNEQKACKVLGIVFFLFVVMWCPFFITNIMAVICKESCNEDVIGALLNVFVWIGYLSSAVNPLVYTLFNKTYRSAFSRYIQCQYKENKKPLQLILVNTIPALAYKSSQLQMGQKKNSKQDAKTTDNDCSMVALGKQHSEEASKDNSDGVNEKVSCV
T1 sequence (P41595 whole entry): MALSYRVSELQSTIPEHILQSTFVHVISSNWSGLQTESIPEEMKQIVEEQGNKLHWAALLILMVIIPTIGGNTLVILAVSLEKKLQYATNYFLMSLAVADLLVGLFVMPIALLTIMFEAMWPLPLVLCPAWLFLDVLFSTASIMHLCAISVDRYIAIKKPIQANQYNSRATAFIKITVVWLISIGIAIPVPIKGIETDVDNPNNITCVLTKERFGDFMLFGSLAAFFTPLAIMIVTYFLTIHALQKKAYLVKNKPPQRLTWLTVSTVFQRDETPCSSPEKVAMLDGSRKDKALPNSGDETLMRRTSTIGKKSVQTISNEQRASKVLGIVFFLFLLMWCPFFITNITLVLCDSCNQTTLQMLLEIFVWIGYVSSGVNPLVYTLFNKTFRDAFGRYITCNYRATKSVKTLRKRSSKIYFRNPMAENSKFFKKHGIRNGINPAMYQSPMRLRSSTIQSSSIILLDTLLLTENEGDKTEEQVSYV
Chain of Rat 5-HT6 (P31388 whole entry): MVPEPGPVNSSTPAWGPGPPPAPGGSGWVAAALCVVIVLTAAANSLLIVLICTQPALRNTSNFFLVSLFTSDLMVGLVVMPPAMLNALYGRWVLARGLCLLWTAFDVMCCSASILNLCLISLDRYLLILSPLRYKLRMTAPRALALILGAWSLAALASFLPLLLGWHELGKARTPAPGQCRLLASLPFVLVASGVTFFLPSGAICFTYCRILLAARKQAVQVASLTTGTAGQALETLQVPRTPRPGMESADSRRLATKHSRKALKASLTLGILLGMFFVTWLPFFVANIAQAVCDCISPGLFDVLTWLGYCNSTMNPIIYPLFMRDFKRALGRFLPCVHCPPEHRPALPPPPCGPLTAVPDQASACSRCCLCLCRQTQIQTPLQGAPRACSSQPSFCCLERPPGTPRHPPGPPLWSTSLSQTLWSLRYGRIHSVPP
Chain of Mk striatum 5-HT6 (A0A5F7ZDI3 1-440): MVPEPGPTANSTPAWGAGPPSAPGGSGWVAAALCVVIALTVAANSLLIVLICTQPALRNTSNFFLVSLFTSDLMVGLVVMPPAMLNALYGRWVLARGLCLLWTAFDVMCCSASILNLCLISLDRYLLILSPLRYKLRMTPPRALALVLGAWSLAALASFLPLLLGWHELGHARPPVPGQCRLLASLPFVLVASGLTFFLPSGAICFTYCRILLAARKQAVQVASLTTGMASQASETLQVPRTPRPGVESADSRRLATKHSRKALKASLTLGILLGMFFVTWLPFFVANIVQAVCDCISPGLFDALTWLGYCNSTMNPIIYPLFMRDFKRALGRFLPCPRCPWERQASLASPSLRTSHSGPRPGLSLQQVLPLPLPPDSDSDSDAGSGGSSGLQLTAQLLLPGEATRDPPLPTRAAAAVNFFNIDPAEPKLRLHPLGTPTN
T2 sequence (P50406 whole entry): as the sequence (A0A5F7ZDI3 1-440) above, with V41A, V49A, P141L, A304V, W342R, Q393R, R406Q, K429E, L432P, T437I counted along it

Regarding “1-(5-(3-(difluoromethoxy)phenylsulfonyl)-2-methoxyphenyl)-4-([^3H]methyl)-piperazine [Example 3]”, the values for the Hippo./Cer. in data set [1] (3 min after dose) and in data set [1] (40 min after dose) were 3.7 and 1.4, respectively. Besides, the Striatum/Cer. in data set [1] (3 min after dose) is reported as 10.4; in data set [1] (40 min after dose), 2.0.
Consider `COc1ccc(S(=O)(=O)c2cccc(OC(F)F)c2)cc1N1CCN(C)CC1` [Example 1, 4-(5-(3-(difluoromethoxy)phenylsulfonyl)-2-methoxyphenyl)-1-methylpiperazin-1-ium chloride], for which the Ki on h-5-HT2B receptor was 71 nM; in [2] it was > 1000 nM; at Rat 5-HT6, 1.5 nM; on h-5-HT6 receptor, 0.41 nM; on h-5-HT2A receptor (text, read-out: Ki at 5-HT2A receptor), 195 nM. Further, the “Selectivity for 5-HT6 over 5-HT2B” value on h-5-HT2B receptor is 173.2 fold. Moreover, the “Free [brain]” value was found to be 53.4 ng/g in data set [3] (3 min after dose) and 55.3 ng/g in data set [3] (5 min after dose). In addition, the “Plasma Conc.” value in [3] (3 min after dose) is recorded as 49.2 ng/mL; in data set [3] (5 min after dose), 29.0 ng/mL. Further, the “Free B/P Ratio” value in data set [3] (3 min after dose) was found to be 1.1; in data set [3] (5 min after dose), 1.7. For the same compound, the “Selectivity for 5-HT6 v. 5-HT2A” value at h-5-HT2A receptor (ratio of human 5-HT2A Ki to human 5-HT6 Ki) was found to be 475.6 ×. The “Selectivity for 5-HT6 over 5-HT2A” value on h-5-HT2A receptor (text) worked out at 475.6 fold; at h-5-HT2A receptor (text, listed as Example (1)), 475 fold. Also, the half-life in the data set “Rat microsome half-life” was 10 min.
For the compound `CN1CCN(c2cccc3cc(S(=O)(=O)c4cccc(F)c4)cnc23)CC1` [GSK-215083, reference compound], the Ki on Mk striatum 5-HT6 was 3.2 nM; on h-5-HT2A receptor (human 5-HT2A, read-out: Human 5-HT2A Ki), 0.395 nM.
